Results as given in patent US20250369032A1 (priority 2023, published 2025).
Where “and” joins values, the source holds several entries; their conditions need not be identical. Equal entries are not always repeated. Where two headings read alike, the source gives them in different places.

Columns and labels:
[1] = biological target: T1, alkaline phosphatase (Bos taurus, UniProt P19111)
Experimental: Two different dosing concentrations were evaluated, 10 μL of test chemical added to 90 μL of alkaline phosphatase reaction reagent and 50 μL of test chemical added to 50 μL of alkaline phosphatase reaction reagent; all aliquoted in 96-well plates.
• 1. Alkaline phosphatase reaction reagent (fresh, 1:100) • a. Take 4 mL of AP (1:10) stock solution, add to 36 mL PBS. Vortex mix and then invert to mix 10 times • 2. Prepare alkaline phosphatase reaction reagent for every condition • a. 200 μL AP (1:10) in 1.8 mL PBS • b. […] 200 μL AP (1:10) in 1.8 mL Acetone • 3. Prepare 96-well plates for dosing • 4. Prepare 96-well plates for PNPP reading (3 wells for each test chemical) • a. Aliquot with 200 μL PNPP
• 1. Set 1 • a. 10 μL chemical added to 90 μL AP reaction reagent • 2. Set 2 • a. 50 μL chemical added to 50 μL AP reaction reagent • 3. Incubate for 3 hours • a. To the prepared 96-well plate with 200 μL PNPP aliquoted, add 20 μL • b. […] To the prepared 96-well plate with 200 μL PNPP aliquoted, add 20 μL • b.
In our next study, we focused on ethanol and buffered saline (potassium chloride, potassium phosphate monobasic, sodium chloride, sodium phosphate dibasic) as our solvents.
• 1. Alkaline phosphatase reaction reagent • a. 1:100 • i. PBS: Take 400 μL of AP (1:10) stock solution, add to 3.6 mL PBS. Vortex mix and then invert to mix 10 times • ii. […] Vortex mix and then invert to mix 10 times • b. 1:1000 • i. PBS: Take 400 μL of AP (1:100) stock solution, add to 3.6 mL PBS. Vortex mix and then invert to mix 10 times • ii. […] Vortex mix and then invert to mix 10 times • 2. Prepare 0.5 mL microcentrifuge tubes for dosing • a. One set for room temperature, one set for 37° C. • 3. Prepare 96-well plates for PNPP reading (3 wells for each test chemical) • a. Aliquot with 200 μL PNPP
• 1. In each microcentrifuge tube for each condition, add 180 μL of the corresponding AP reaction reagent • 2. Add 20 μL of the test chemical to each microcentrifuge tube • 3. Incubate for 4 hours (one set at room temperature; one set at 37° C.) • 4. To prepared 96-well plates with 200 μL PNPP aliquoted, add 20 μL of each microcentrifuge tube to the corresponding well • 5.

[2] = system: skin; details: cited from earlier work
[3] = biological target: T1, alkaline phosphatase; type: biochemical; set-up: purchased Sigma Aldrich, St. Louis, MO P0114 (original source); P7640 (second source, 'new AP' condition only)
[4] = system: endogenous skin phosphatase; type: biochemical, porcine; details: optical density compared to the naïve condition
Experimental: Our next studies involved applying the test substance (500 μL) directly to the epidermis side of previously frozen porcine skin (Spear Products, Coopersburg, PA) that is placed in a holder that only exposes the epidermis side for 30 minutes, adding phosphate buffered saline (PBS) with added sodium azide (metabolic inhibitor that ensure no viable tissue), then aliquoting into cuvettes to read at an optical density of 300 nm. […] So, at the end of the initial studies described above, almost out of frustration, we tried to probe for released phosphatase activity using p-Nitrophenyl phosphate disodium salt (PNPP; Sigma Aldrich, St. Louis, MO) substrate solution to detect any presence of phosphatase.
• 1. Thaw 2 pieces of frozen porcine skin • a. Punch out as many skin discs and mount in holders • 2. Label cuvettes (3 for each chemical)
• 1. Add 500 μL of test chemical to holder; incubate at room temperate for 30 minutes • 2. After 30 minutes, add 2 mL of PBS-Azide to both the holder containing the test chemical; forcefully pipette and re-pipette 10 times • 3. From the holder, aliquot 400 μL into 3 cuvettes; forcefully pipette and re-pipette 3 times before dispensing into cuvettes
Skin corrosion by GHS Category 1 dermal corrosive chemicals results in the disintegration of the epidermis into the dermis.

[5] = biological target: T1, alkaline phosphatase; type: biochemical; set-up: purchased Sigma Aldrich, St. Louis, MO P0114 (original source); P7640 (second source, 'new AP' condition only); remark: listed apart in the source
Source text: Our next study focused on an in vitro method of detecting the potential of dermal corrosives to inhibit nonspecific phosphatases that may be released from the skin. We decided to test pure […] instead of relying on endogenous skin phosphatase. Alkaline phosphatase (Sigma Aldrich, St. Louis, MO) was purchased and suspended to make the reaction reagent (10,000 units). […] We note that the ratio used was 0.1 g/ml or 10% chemical-which is far in excess of any pharmaceutical applications. We further note that pharmaceutical enzyme inhibition tests, studies an use involve highly specific active site binding and these assays are conducted at ratios of micrograms-femtograms per ml. These studies are done at these ranges because these are the realistic concentrations for drug applications and therapeutics. […] So when a 50 Kg human consumes the tables, the tissues will be exposed at a 5 mg/50 kg=0.1 mg/kg=0.0000001 g/ml.
Next two quantitative methods were evaluated: 1) using the discs parts from our OptiSafe™ test method and 2) directly into the 24-well plate.
• 1. Alkaline phosphatase reaction reagent • a. Take 1 vial of AP, add 1 mL of PBS, mix by pipette/re-pipette 10 times • b. To a 50 mL conical tube, add 1 mL of the AP solution prepared above and 40 mL of PBS • 2. Prepare two 24-well plates (1 with discs, 1 without discs) • 3. […] Aliquot 200 μL PNPP and PBS
• 1. Plate 1 (No Discs) • a. Add 1.25 mL from the prepared PBS-AP conical tube to each well (11 wells) • b. Add 100 μL of the test material to the well, mix with the same pipette tip, dispose and repeat for the rest of the test materials • c. Wrap the plate in saran wrap and place into the container • 2. Plate 2 (Discs) • a. Configure the 11 discs in the plate so the plate cover is stable • b. Add 1.25 mL from the prepared PBS-AP conical tube to each well (11 wells) • c. Add 100 μL of the test material to the center of the disc and repeat for the rest of the test materials • d. Put the plate cover on and place into the container • 3. […] Incubate for 1 hour
For the new study, the alkaline phosphatase was suspended in phosphate buffered saline (PBS) to make the reaction reagent. Then, 100 μL of the test chemical is added directly into the corresponding wells on a 24-well plate with 1.25 mL of alkaline phosphatase reaction reagent already aliquoted.
• 1. Alkaline phosphatase reaction reagent • a. Take 1 vial of AP, add 1 mL of PBS, mix by pipette/re-pipette 10 times • b. To a 50 mL conical tube, add 1 mL of the AP solution prepared above and 40 mL of PBS • 2. Prepare two 24-well plates • 3. […] Aliquot with 200 μL PNPP and PBS • 4. Prepare glass vials Repeat Procedure from Jan. […] 24-well plate • a. Add 1.25 mL from the prepared PBS-AP conical tube to each well (11 wells) • b. Add 100 μL of the test material to the well, mix with the same pipette tip, dispose and repeat for the rest of the test materials • c. Wrap the plate in saran wrap and place into the container • 2. […] To the prepared 96-well plate with 200 μL PNPP or PBS, add 20 μL from the 24-well plate • 4. Incubate for 1 hour • 5.
• 1. 24-well plate • a. Add 1.25 mL from the prepared PBS-AP conical tube to each well (11 wells) • b. Add 100 μL of the test material to the well, mix with the same pipette tip, dispose and repeat for the rest of the test materials • c. After 10 minutes, mix each well • 2.

[6] = system: porcine skin; details: R 1 and 2
Experimental: Our initial studies involved using fresh and frozen porcine skin “buttons”. These buttons were punched out of porcine skin (Spear Products, Cooopersburg, PA) using a […] biopsy punch tool. Three different kinds of skin buttons were prepared from fresh porcine skin, frozen porcine skin, and frozen porcine skin with the fatty layer removed. […] The next day, the tubes were taken out and vortexed and 500 μL of the solution was aliquoted into cuvettes to read at three different optical density wavelengths (OD190, OD290, OD300) to evaluate the best response.
• 1. Thaw 2 pieces of frozen porcine skin • 2. Punch out buttons: 24 buttons in each tube filled with 40 mL PBS-Azide
• 1. Plate layout for dosing:
• 1. Dose each tissue with 140 μL of test chemical • 2.
• 1. Take out of incubator and vortex pulse 3× • 2. Aliquot 500 μL to cuvette and read results at OD190, OD290, and OD300
There were three readings done at an optical density of 190, 290, and 300 nm to evaluate the best response. […] To address the variable exposure conditions, our next studies involved placing a larger porcine skin section into a holder that exposes only the epidermis side with no potential for test chemical exposure from the backside or through the sides.

[7] = 4 mL glass vials, 30 μL into 300 μL, 1:100, 4 hours room temperature, 3 mL PNPP 1 hour
[8] = 1:100, 20 μL into 180 μL, 0.5 mL microcentrifuge tubes, 4 hours RT, PNPP 60 min, 405 nm
[9] = average of R1-R3, 1:100, 20 μL into 180 μL, 4 hours RT, PNPP 60 min, 405 nm
[10] = fresh porcine skin, 140 μL, 18 hours at 37° C. in PBS-Azide
[11] = frozen porcine skin with fat layer removed
[12] = 10-minute test chemical exposure

T1 sequence (P19111 20-506): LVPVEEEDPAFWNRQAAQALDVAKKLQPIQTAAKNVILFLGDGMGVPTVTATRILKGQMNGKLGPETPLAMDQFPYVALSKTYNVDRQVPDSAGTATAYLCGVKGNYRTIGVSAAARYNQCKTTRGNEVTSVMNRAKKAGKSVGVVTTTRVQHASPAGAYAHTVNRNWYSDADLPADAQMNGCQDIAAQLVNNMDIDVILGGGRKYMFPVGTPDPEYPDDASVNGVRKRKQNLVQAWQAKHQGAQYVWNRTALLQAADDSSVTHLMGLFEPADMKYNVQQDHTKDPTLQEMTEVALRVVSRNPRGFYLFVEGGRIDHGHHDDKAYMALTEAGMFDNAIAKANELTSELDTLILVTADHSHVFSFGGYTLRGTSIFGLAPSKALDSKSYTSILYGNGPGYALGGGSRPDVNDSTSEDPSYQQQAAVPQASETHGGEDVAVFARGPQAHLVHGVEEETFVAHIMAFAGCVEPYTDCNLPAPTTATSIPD

Structure (SMILES): Cc1ccc(C(C)C)cc1O
- OD405 readings (FIG. 11D) [1, 7]: 3.444 and 3.465 and 3.398
- in vivo GHS ([2]; skin, chemical lists of the protocols): Cat. 1B/1C
- A1-Results R1 [3, 8]: 0.211
- A1-Results R3 [3, 8]: 0.272
- OD405 readings (FIG. 11B) [3, 7]: 1.990 and 1.926
- A1-Results AVG [3, 9]: 0.242
- prediction based on OD405 values (FIG. 6B) ([3]; original alkaline phosphatase 1:1, 18 hours room temperature): incorrectly predicted
- OD405 readings (FIG. 6D) ([3]; original alkaline phosphatase 1:100 (100 units), 100 μL into 1 mL, 18 hours room temperature, PNPP 1 hour): 0.991 and 0.974 and 1.167

Structure (SMILES): C=CCCC=C [1,5-Hexadiene]
- OD405 reading (FIG. 7A) [1]: 1.702
- OD405 reading (FIG. 7B) [1]: 2.947
- A1-Results R1 [3, 8]: 3.502
- A1-Results R3 [3, 8]: 3.498
- A1-Results AVG [3, 9]: 3.496

Structure (SMILES): ClCCCCBr [1-Bromo-4-chlorobutane]
- OD405 reading (FIG. 9B) [1]: 0.799
- A1-Results R1 [3, 8]: 3.387
- A1-Results R3 [3, 8]: 3.502
- A1-Results AVG [3, 9]: 3.464

Structure (SMILES): CC(=O)O [Acetic acid]
- percent of phosphatase measured (first reading) [4]: 19.1%
- percent of phosphatase measured (second reading) [4]: 18.6%
- percent of phosphatase measured, average [4]: 18.9%
- Corrosive ([2]; rabbit, in vivo): Yes
- optical density readings (FIG. 3B) [5]: 0.104 and 0.129 and 0.101
- A1-Results AVG [3]: 0.096
- A1-Results R1 [3]: 0.096
- A1-Results R3 [3]: 0.096
- optical density readings (FIG. 3A) [3]: 0.106 and 0.102 and 0.103

Structure (SMILES): CN(C)CCCNCCCN [Dimethyldipropylenetriamine]
- OD190 [6, 10]: >3A
- OD290 [6, 10]: 0.922 and 1.016
- OD300 [6, 10]: 0.819 and 0.887
- OD190 [6, 11]: 0.610 and 0.594
- OD290 [6, 11]: 0.238 and 0.170
- OD300 [6, 11]: 0.162 and 0.118
- OD190 ([6]; frozen porcine skin): >3A
- OD290 ([6]; frozen porcine skin): 0.936 and 0.775
- OD300 ([6]; frozen porcine skin): 0.806 and 0.636
- percent of phosphatase measured (first reading) [4]: 23.5%
- percent of phosphatase measured (second reading) [4]: 17.7%
- percent of phosphatase measured, average [4]: 20.6%
- Corrosive ([2]; Table 2): Yes
- 10-minute PNPP incubation readings (FIG. 5A) [5, 12]: 3.449 and 3.502 and 3.500
- 18-hour PNPP incubation readings (FIG. 5D) [5, 12]: 0.112 and 0.105 and 0.110
- prediction based on OD405 values (FIG. 6C) ([5]; original alkaline phosphatase 1:10 dilution): mispredicted
- prediction based on OD405 values (FIG. 6D) ([5]; original alkaline phosphatase 1:100 dilution): correctly predicted
- optical density readings (FIG. 4) ([5]; repeat, without discs, 18 hours 37° C., PNPP 1 hour, 405 nm): 0.132 and 0.128 and 0.127
- optical density readings (FIG. 3A) ([5]; with discs, 100 μL into 1.25 mL reaction reagent (10,000 units), 18 hours 37° C., PNPP 1 hour, 405 nm): 0.152 and 0.159 and 0.140
- A1-Results R1 [3, 8]: 0.118
- A1-Results R3 [3, 8]: 0.124
- 1-hour PNPP incubation readings (FIG. 5B) [3, 12]: 0.352 and 0.283 and 0.333
- 4-hour PNPP incubation readings (FIG. 5C) [3, 12]: 0.122 and 0.116 and 0.114
- A1-Results AVG [3, 9]: 0.121
- optical density readings (FIG. 3B) ([3]; without discs, 100 μL into 1.25 mL reaction reagent (10,000 units), 18 hours 37° C., PNPP 1 hour, 405 nm): 0.138 and 0.176 and 0.133
